The values below come from paper PMC7997574, “Lead Optimization of Benzoxazolone Carboxamides as Orally Bioavailable and CNS Penetrant Acid Ceramidase Inhibitors” (Journal of Medicinal Chemistry, 2020).

The structures appear in SMILES notation. pIC50: −log10 of the molar value. Where two headings read alike, the source gives them in different places.

Usually pIC50 stands for −log10 of the IC50, conventionally taken in molar units. The low end stands for a large IC50, the high end for a small IC50.

Series [1] addresses T1, human fatty acid amide hydrolyase (FAAH) (Homo sapiens, UniProt O00519).
T1 construct: expressed in transfected cells
T1 sequence (O00519 1-579): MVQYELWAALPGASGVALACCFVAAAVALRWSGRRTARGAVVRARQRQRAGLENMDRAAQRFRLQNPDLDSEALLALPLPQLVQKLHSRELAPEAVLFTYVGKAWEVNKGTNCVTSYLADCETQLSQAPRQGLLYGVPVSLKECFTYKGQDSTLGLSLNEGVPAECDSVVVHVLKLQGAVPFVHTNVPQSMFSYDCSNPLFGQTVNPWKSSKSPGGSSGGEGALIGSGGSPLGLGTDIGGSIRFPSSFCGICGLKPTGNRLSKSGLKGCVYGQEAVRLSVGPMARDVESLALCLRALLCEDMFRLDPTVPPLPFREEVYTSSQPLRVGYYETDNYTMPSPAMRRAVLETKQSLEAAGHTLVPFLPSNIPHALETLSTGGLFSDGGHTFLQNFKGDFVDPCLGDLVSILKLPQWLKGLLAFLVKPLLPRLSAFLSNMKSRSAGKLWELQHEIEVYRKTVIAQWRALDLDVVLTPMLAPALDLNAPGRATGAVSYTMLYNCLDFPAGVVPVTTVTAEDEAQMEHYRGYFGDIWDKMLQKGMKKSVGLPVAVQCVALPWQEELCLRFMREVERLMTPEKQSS
The series is described as follows: Fluorogenic hFAAH assay. It counts as biochemical. As for the experimental part: hFAAH was obtained from a HEK-293 FAAH-1 overexpressing stable cell line. Cells were grown in Dulbecco’s modified Eagle medium (DMEM) containing 10% FBS, 1% penicillin/streptomycin, 1% glutamine, 1 mM sodium pyruvate, and 500 μg mL^–1 G418. Cells were harvested, and pellets were stored at −80 °C until membrane-enriched lysate preparation. The cell pellet was resuspended in 20 mM Tris HCl (pH 7.4, 0.32 M sucrose), sonicated, and centrifuged at 1000 × g (10 min, 4 °C). The collected supernatant was centrifuged at 12000 × g for 10 min at 4 °C, and the supernatants were further centrifuged at 100000 × g for 1 h at 4 °C. Membrane pellets were resuspended in PBS, protein concentration was measured, and samples were aliquoted and stored at −80 °C until use.
The fluorescence assay to measure FAAH activity was performed in 96-well black plates (Black OptiPlate-96F; PerkinElmer, Massachusetts, USA): 2.5 μg of hFAAH membrane preparation was preincubated for 50 min at 37 °C in 190 μL of assay buffer (50 mM Tris HCl pH 7.4, 0.05% fatty acid free BSA), with 5 μL of inhibitor or 5 μL of DMSO to measure FAAH total activity. […] The reaction was carried out for 45 min at 37 °C, and fluorescence was measured with an EnVision 2014 Multilabel Reader (PerkinElmer, Massachusetts, USA) (excitation wavelength 355 nm/emission wavelength 460 nm). […]

Series [2] can be described thus: Plasma and brain concentrations in Twitcher mice. In kind it is in vivo. The conditions noted are these: both sexes, Twitcher (GALC–/−), mouse, ip, 1 h after last dose (day 20). The protocol:
4L;C* mice (C57BL/6 J/129SvEV) were randomly assigned to three treatment groups (N = 4–8 with mixed males and females) and dosed once a day i.p. with 90 or 30 mg kg^–1 of 22m or vehicle. Treatment started at 5 days of age for a duration of 14 days. The application volume was set to 10 μL per gram of body weight, and dosage was adjusted accordingly. Animals of all groups were sacrificed 1 h after the last dose, and the brain tissues and plasma were collected. The left brain containing cortex, cerebella, thalamus, and brainstem was analyzed for SphL levels by MS. Data were analyzed using the Student t test. The right brain containing cortex, cerebella, thalamus, and brainstem and plasma were analyzed for drug levels of 22m. All mice were housed under pathogen-free conditions in the animal facility, and animal experiment was performed according to the IACUC approved protocol (2018-0056) at Cincinnati Children’s Hospital Research Foundation. Wild Type (WT) (GALC+/+) and Twitcher (Twi) (GALC–/−) mice were genotyped by PCR as previously described.[58] Twi mice were randomly assigned to three treatment groups (N = 3 males + N = 3 females for each group) and dosed once a day i.p. with 90 or 30 mg kg^–122m or vehicle for a duration of 20 days. Treatment started at 10 days of age. The application volume was set to 10 μL per gram of body weight, and dosage was adjusted accordingly. Two groups (N = 3 males + N = 3 females for each group) of WT controls treated with vehicle or high dose (90 mg kg^–1) of 22m were also included in the study. Animals of all groups were sacrificed 1 h after the last dose, and the brain tissues and plasma were collected. The left brain containing cortex, cerebella, thalamus, and brainstem was analyzed for SphL levels by MS. Data were analyzed using the Student t test. The right brain containing cortex, cerebella, thalamus, and brainstem and plasma were analyzed for drug levels of 22m. All animal work in this study was performed in accordance with approved animal protocols from the Animal Care and Use Committee at the University of Illinois at Chicago.

In series [1], `CC(C)CNC(=O)n1c(=O)oc2cc(C3CCN(C)CC3)ccc21` [22m, N-Isobutyl-6-(1-methyl-4-piperidyl)-2-oxo-1,3-benzoxazole-3-carboxamide] had a pIC50 of 7.15. The concentration at 1 h in series [2] (brain, 30 mg kg^–1, Twitcher mice, 30 mg kg^–1 i.p., read-out: Cb (μM) brain concentration) amounted to 114 µM; in series [2] (brain, 30 mg kg^–1, Twitcher mice, 30 mg kg^–1 i.p., read-out: Cb, u (μM) brain unbounded concentration), 0.8 µM; in series [2] (brain, 90 mg kg^–1, Twitcher mice, 90 mg kg^–1 i.p., read-out: Cb (μM) brain concentration) it was 308 µM; in series [2] (brain, 90 mg kg^–1, Twitcher mice, 90 mg kg^–1 i.p., read-out: Cb, u (μM) brain unbounded concentration) it was 2.15 µM; in series [2] (plasma, 30 mg kg^–1, Twitcher mice, 30 mg kg^–1 i.p., read-out: Cp (μM) plasma concentration), 0.85 µM; in series [2] (plasma, 30 mg kg^–1, Twitcher mice, 30 mg kg^–1 i.p., read-out: Cp,u (μM) plasma unbounded concentration) it was 0.11 µM. Moreover, the concentration at 1 h in series [2] (plasma, 90 mg kg^–1, Twitcher mice, 90 mg kg^–1 i.p., read-out: Cp (μM) plasma concentration) turned out to be 3.85 µM; in series [2] (plasma, 90 mg kg^–1, Twitcher mice, 90 mg kg^–1 i.p., read-out: Cp,u (μM) plasma unbounded concentration), 0.52 µM.
